# Tested on: Patients diagnosed with Alzheimer's Disease
# Test: Adverse events / safety monitoring in the trial
# Assay type: in vivo, human
# Description: Subjects in the Placebo group received 21 weeks (5 months) of placebo medication.
# The safety of the drug was also monitored throughout the study. Blood samples for biochemistry and haematology and random urine sample for urinalysis were taken at each visit and at completion for all efficacy testing. Systolic and diastolic blood pressure were measured in the sitting position, pulse and vital signs were recorded at each visit.
smiles,measurement,setting,value
"COc1ccc2c3c1O[C@H]1C[C@@H](O)C=C[C@@]31CCN(C)C2 [GAL, galantamine]","Serious adverse event Basal cell carcinoma, % of patients",16 mg/day,(0.0%)
same,"Serious adverse event Basal cell carcinoma, number of patients",16 mg/day,0
same,"Serious adverse event Breast neoplasm female, % of patients",16 mg/day,(0.0%)
same,"Serious adverse event Breast neoplasm female, number of patients",16 mg/day,0
same,"Serious adverse event Cardiac failure, % of patients",16 mg/day,(1.1%)
same,"Serious adverse event Cardiac failure, number of patients",16 mg/day,3
same,"Serious adverse event Dehydration, % of patients",16 mg/day,(1.1%)
same,"Serious adverse event Dehydration, number of patients",16 mg/day,3
same,"Serious adverse event Diarrhea, % of patients",16 mg/day,(1.1%)
same,"Serious adverse event Diarrhea, number of patients",16 mg/day,3
same,"Serious adverse event Dyspnea, % of patients",16 mg/day,(0.7%)
same,"Serious adverse event Dyspnea, number of patients",16 mg/day,2
same,"Serious adverse event Fall, % of patients",16 mg/day,(0.4%)
same,"Serious adverse event Fall, number of patients",16 mg/day,1
same,"Serious adverse event Gi haemorrhage, % of patients",16 mg/day,(0.0%)
same,"Serious adverse event Gi haemorrhage, number of patients",16 mg/day,0
same,"Serious adverse event Injury, % of patients",16 mg/day,(0.4%)
same,"Serious adverse event Injury, number of patients",16 mg/day,1
same,"Serious adverse event Myocardial infarction, % of patients",16 mg/day,(0.4%)
same,"Serious adverse event Myocardial infarction, number of patients",16 mg/day,1
same,"Serious adverse event Nausea, % of patients",16 mg/day,(0.7%)
same,"Serious adverse event Nausea, number of patients",16 mg/day,2
same,"Serious adverse event Pneumonia, % of patients",16 mg/day,(0.7%)
same,"Serious adverse event Pneumonia, number of patients",16 mg/day,2
same,"Serious adverse event Sepsis, % of patients",16 mg/day,(0.0%)
same,"Serious adverse event Sepsis, number of patients",16 mg/day,0
same,"Serious adverse event Surgical intervention, % of patients",16 mg/day,(1.1%)
same,"Serious adverse event Surgical intervention, number of patients",16 mg/day,3
same,"Serious adverse event Syncope, % of patients",16 mg/day,(1.4%)
same,"Serious adverse event Syncope, number of patients",16 mg/day,4
same,"Serious adverse event Thrombophlebitis deep, % of patients",16 mg/day,(0.0%)
same,"Serious adverse event Thrombophlebitis deep, number of patients",16 mg/day,0
same,"Serious adverse event Transient ischemic attack, % of patients",16 mg/day,(0.7%)
same,"Serious adverse event Transient ischemic attack, number of patients",16 mg/day,2
same,"Serious adverse event Urinary tract infection, % of patients",16 mg/day,(0.7%)
same,"Serious adverse event Urinary tract infection, number of patients",16 mg/day,2
same,"Serious adverse event Vomiting, % of patients",16 mg/day,(0.7%)
same,"Serious adverse event Vomiting, number of patients",16 mg/day,2
same,"Total patients with any SAE, %",16 mg/day,(10.0%)
same,"Total patients with any SAE, number",16 mg/day,28
same,"Adverse event Agitation, % of patients",24 mg/day,(8.1%)
same,"Adverse event Agitation, number of patients",24 mg/day,22
same,"Adverse event Anorexia, % of patients",24 mg/day,(8.8%)
same,"Adverse event Anorexia, number of patients",24 mg/day,24
same,"Adverse event Depression, % of patients",24 mg/day,(8.%)
same,"Adverse event Depression, number of patients",24 mg/day,22
same,"Adverse event Diarrhea, % of patients",24 mg/day,(5.5%)
same,"Adverse event Diarrhea, number of patients",24 mg/day,15
same,"Adverse event Dizziness, % of patients",24 mg/day,(7.0%)
same,"Adverse event Dizziness, number of patients",24 mg/day,19
same,"Adverse event Dyspepsia, % of patients",24 mg/day,(5.5%)
same,"Adverse event Dyspepsia, number of patients",24 mg/day,15
same,"Adverse event Edema peripheral, % of patients",24 mg/day,(2.6%)
same,"Adverse event Edema peripheral, number of patients",24 mg/day,7
same,"Adverse event Fall, % of patients",24 mg/day,(4.4%)
same,"Adverse event Fall, number of patients",24 mg/day,12
same,"Adverse event Headache, % of patients",24 mg/day,(4.8%)
same,"Adverse event Headache, number of patients",24 mg/day,13
same,"Adverse event Injury, % of patients",24 mg/day,(5.9%)
same,"Adverse event Injury, number of patients",24 mg/day,16
same,"Adverse event Nausea, % of patients",24 mg/day,(16.5%)
same,"Adverse event Nausea, number of patients",24 mg/day,45
same,"Adverse event Rhinitis, % of patients",24 mg/day,(4.0%)
same,"Adverse event Rhinitis, number of patients",24 mg/day,11
same,"Adverse event Urinary tract infection, % of patients",24 mg/day,(8.1%)
same,"Adverse event Urinary tract infection, number of patients",24 mg/day,22
same,"Adverse event Vomiting, % of patients",24 mg/day,(9.9%)
same,"Adverse event Vomiting, number of patients",24 mg/day,27
same,"Adverse event Weight decrease, % of patients",24 mg/day,(4.8%)
same,"Adverse event Weight decrease, number of patients",24 mg/day,13
same,"Adverse event of clinical interest Bradycardia, % of patients",24 mg/day,(2.9%)
same,"Adverse event of clinical interest Bradycardia, number of patients",24 mg/day,8
same,"Adverse event of clinical interest Convulsions, % of patients",24 mg/day,(0.4%)
same,"Adverse event of clinical interest Convulsions, number of patients",24 mg/day,1
same,"Adverse event of clinical interest Fatigue, % of patients",24 mg/day,(4.8%)
same,"Adverse event of clinical interest Fatigue, number of patients",24 mg/day,13
same,"Adverse event of clinical interest Muscle weakness, % of patients",24 mg/day,(0.4%)
same,"Adverse event of clinical interest Muscle weakness, number of patients",24 mg/day,1
same,"Adverse event of clinical interest Syncope, % of patients",24 mg/day,(3.3%)
same,"Adverse event of clinical interest Syncope, number of patients",24 mg/day,9
same,"Serious adverse event Abdominal pain, % of patients",24 mg/day,(0.0%)
same,"Serious adverse event Abdominal pain, number of patients",24 mg/day,0
same,"Serious adverse event Agitation, % of patients",24 mg/day,(0.0%)
same,"Serious adverse event Agitation, number of patients",24 mg/day,0
same,"Serious adverse event Asthenia, % of patients",24 mg/day,(0.4%)
same,"Serious adverse event Asthenia, number of patients",24 mg/day,1
same,"Serious adverse event Basal cell carcinoma, % of patients",24 mg/day,(0.7%)
same,"Serious adverse event Basal cell carcinoma, number of patients",24 mg/day,2
same,"Serious adverse event Breast neoplasm female, % of patients",24 mg/day,(0.0%)
same,"Serious adverse event Breast neoplasm female, number of patients",24 mg/day,0
same,"Serious adverse event Cardiac failure, % of patients",24 mg/day,(0.0%)
same,"Serious adverse event Cardiac failure, number of patients",24 mg/day,0
same,"Serious adverse event Dehydration, % of patients",24 mg/day,(0.0%)
same,"Serious adverse event Dehydration, number of patients",24 mg/day,0
same,"Serious adverse event Diarrhea, % of patients",24 mg/day,(0.0%)
same,"Serious adverse event Diarrhea, number of patients",24 mg/day,0
same,"Serious adverse event Dyspnea, % of patients",24 mg/day,(1.1%)
same,"Serious adverse event Dyspnea, number of patients",24 mg/day,3.
same,"Serious adverse event Fall, % of patients",24 mg/day,(1.1%)
same,"Serious adverse event Fall, number of patients",24 mg/day,3
same,"Serious adverse event Gi haemorrhage, % of patients",24 mg/day,(0.7%)
same,"Serious adverse event Gi haemorrhage, number of patients",24 mg/day,2
same,"Serious adverse event Injury, % of patients",24 mg/day,(1.8%)
same,"Serious adverse event Injury, number of patients",24 mg/day,5
same,"Serious adverse event Myocardial infarction, % of patients",24 mg/day,(0.4%)
same,"Serious adverse event Myocardial infarction, number of patients",24 mg/day,1
same,"Serious adverse event Nausea, % of patients",24 mg/day,(0.0%)
same,"Serious adverse event Nausea, number of patients",24 mg/day,0
same,"Serious adverse event Pneumonia, % of patients",24 mg/day,(1.1%)
same,"Serious adverse event Pneumonia, number of patients",24 mg/day,3
same,"Serious adverse event Sepsis, % of patients",24 mg/day,(0.0%)
same,"Serious adverse event Sepsis, number of patients",24 mg/day,0
same,"Serious adverse event Surgical intervention, % of patients",24 mg/day,(0.0%)
same,"Serious adverse event Surgical intervention, number of patients",24 mg/day,0
same,"Serious adverse event Syncope, % of patients",24 mg/day,(1.8%)
same,"Serious adverse event Syncope, number of patients",24 mg/day,5
same,"Serious adverse event Thrombophlebitis deep, % of patients",24 mg/day,(0.7%)
same,"Serious adverse event Thrombophlebitis deep, number of patients",24 mg/day,2
same,"Serious adverse event Transient ischemic attack, % of patients",24 mg/day,(0.0%)
same,"Serious adverse event Transient ischemic attack, number of patients",24 mg/day,0
same,"Serious adverse event Urinary tract infection, % of patients",24 mg/day,(0.0%)
same,"Serious adverse event Urinary tract infection, number of patients",24 mg/day,0
same,"Serious adverse event Vomiting, % of patients",24 mg/day,(0.4%)
same,"Serious adverse event Vomiting, number of patients",24 mg/day,1
same,Syncope incidence,24 mg/day,slight dose-related increase in incidence
same,"Total patients with any SAE, %",24 mg/day,(12.8%)
same,"Total patients with any SAE, number",24 mg/day,35
same,"Occurrence of nausea, vomiting and anorexia","8, 16, 24 mg/day",mild dose-related occurrence at a relatively low incidence
same,Bradycardia incidence compared with placebo,all galantamine doses,higher incidence
same,Incidence of serious adverse events,all treatment groups,comparable across all treatment groups
same,Deaths related to trial medication,throughout the trial,No death was considered by the investigator to be related to trail medication
